Consider 2 compounds from patent US10172830B2, “Pyrazolone compounds having human neutrophil elastase inhibitory properties” (CHIESI FARMACEUTICI S.P.A., priority 2016, dated 2019).

One may read the IC50 as the point on the concentration scale where inhibition reaches its midpoint.

For the test, the target named is T1, human neutrophil elastase (HNE) (Homo sapiens, UniProt P08246).
T1 construct: purchased Sigma E8140
T1 sequence (P08246 30-247 limits assumed): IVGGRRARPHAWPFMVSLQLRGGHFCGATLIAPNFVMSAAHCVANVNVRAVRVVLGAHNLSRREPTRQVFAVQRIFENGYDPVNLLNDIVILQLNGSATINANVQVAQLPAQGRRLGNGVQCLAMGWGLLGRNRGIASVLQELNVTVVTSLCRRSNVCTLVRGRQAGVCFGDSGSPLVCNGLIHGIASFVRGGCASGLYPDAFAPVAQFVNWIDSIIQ
Kind of test: HNE enzyme assay (human neutrophil elastase enzyme activity assay). The test is classed as biochemical. The following applies: human leukocyte elastase 0.00072 U/mL; substrate MeOSuc-Ala-Ala-Pro-Val-AMC 100 μM; 25° C. for 30 minutes; at least two separate experiments; read-out: HNE inhibition (HNE enzyme inhibition, IC50 values). In a few lines:
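Human leukocyte elastase (0.00072 U/mL) with 100 μM MeOSuc-AAPV-AMC in Tris/NaCl/CaCl2/Brij-35 buffer, pH 7.5, 1% DMSO, 30 min at 25 °C; stopped with soybean trypsin inhibitor. AMC fluorescence (380/460 nm) as % inhibition of control; IC50 from dose-response curves, ≥2 experiments.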

Regarding `Cn1c(-c2ccnn2-c2ccc(C#N)cc2)c(C(=O)N[C@@H]2C[C@@H]3C[N+](C)(C)C[C@@H]3C2)c(=O)n1-c1cccc(C(F)(F)F)c1` [Example 23, (3aS,5R,6aR)-5-{[2′-(4-Cyano-phenyl)-2-methyl-5-oxo-1-(3-trifluoromethyl-phenyl)-2,5-dihydro-1H,2′H-[3,3′]bipyrazolyl-4-carbonyl]-amino}-2,2-dimethyl-octahydro-cyclopenta[c]pyrrolium benzene sulphonate], the IC50 is less than 1 nM. As for `Cn1c(-c2ccnn2-c2ccc(C#N)cc2)c(C(=O)N[C@H]2CC[C@H](C(=O)NC3CC[N+](C)(C)CC3)CC2)c(=O)n1-c1cccc(C(F)(F)F)c1` [Example 58, 4-[(4-{[2′-(4-Cyano-phenyl)-2-methyl-5-oxo-1-(3-trifluoromethyl-phenyl)-2,5-dihydro-1H,2′H-[3,3′]bipyrazolyl-4-carbonyl]-amino}-cyclohexanecarbonyl)-amino]-1,1-dimethyl-piperidinium benzene sulphonate], the figure is less than 1 nM.
